ChEMBL document CHEMBL4680187, “Optimization of EphA2 antagonists based on a lithocholic acid core led to the identification of UniPR505, a new 3α-carbamoyloxy derivative with antiangiogenetic properties” (Eur J Med Chem, 2020)

Tests used:
Ephrin type-A receptor 3 = molecular target: T1, Ephrin type-A receptor 3 (Mus musculus, UniProt P29319); test: Displacement of biotinylated ephrin-A1-Fc from mouse EphA3 Fc preincubated for 1 hr followed by ephrin-A1-FC addition and measured after 4 hrs by ELISA
T1 sequence (P29319 whole entry): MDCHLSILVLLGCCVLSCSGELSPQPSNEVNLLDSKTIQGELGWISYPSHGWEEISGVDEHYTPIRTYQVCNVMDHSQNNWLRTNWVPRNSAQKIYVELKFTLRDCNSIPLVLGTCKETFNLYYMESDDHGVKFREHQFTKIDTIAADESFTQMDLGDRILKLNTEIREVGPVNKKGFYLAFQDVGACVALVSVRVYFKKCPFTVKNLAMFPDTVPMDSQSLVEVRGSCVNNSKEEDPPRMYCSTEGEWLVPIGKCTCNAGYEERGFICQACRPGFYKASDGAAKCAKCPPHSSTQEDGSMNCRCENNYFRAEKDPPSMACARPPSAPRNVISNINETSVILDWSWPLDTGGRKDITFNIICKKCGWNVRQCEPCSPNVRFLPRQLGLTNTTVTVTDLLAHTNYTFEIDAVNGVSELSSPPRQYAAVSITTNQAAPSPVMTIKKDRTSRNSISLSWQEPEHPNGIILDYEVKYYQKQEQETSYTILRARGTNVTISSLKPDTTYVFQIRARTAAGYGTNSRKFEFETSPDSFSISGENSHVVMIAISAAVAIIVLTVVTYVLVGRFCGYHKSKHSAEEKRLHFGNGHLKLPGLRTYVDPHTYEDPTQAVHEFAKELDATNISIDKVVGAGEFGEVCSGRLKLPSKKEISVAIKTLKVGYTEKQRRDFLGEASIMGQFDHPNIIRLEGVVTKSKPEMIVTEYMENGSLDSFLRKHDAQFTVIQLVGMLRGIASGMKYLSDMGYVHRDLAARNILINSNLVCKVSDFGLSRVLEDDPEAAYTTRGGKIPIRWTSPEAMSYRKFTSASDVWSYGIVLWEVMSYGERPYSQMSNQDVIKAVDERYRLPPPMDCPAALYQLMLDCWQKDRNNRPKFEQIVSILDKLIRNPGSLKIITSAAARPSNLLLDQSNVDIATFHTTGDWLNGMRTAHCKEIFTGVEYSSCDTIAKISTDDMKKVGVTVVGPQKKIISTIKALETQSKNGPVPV

Ephrin type-B receptor 6 = molecular target: T2, Ephrin type-B receptor 6 (Mus musculus, UniProt O08644); test: Displacement of biotinylated ephrin-B1-Fc from mouse EphB6 Fc preincubated for 1 hr followed by ephrin-B1-FC addition and measured after 4 hrs by ELISA
T2 sequence (O08644 whole entry): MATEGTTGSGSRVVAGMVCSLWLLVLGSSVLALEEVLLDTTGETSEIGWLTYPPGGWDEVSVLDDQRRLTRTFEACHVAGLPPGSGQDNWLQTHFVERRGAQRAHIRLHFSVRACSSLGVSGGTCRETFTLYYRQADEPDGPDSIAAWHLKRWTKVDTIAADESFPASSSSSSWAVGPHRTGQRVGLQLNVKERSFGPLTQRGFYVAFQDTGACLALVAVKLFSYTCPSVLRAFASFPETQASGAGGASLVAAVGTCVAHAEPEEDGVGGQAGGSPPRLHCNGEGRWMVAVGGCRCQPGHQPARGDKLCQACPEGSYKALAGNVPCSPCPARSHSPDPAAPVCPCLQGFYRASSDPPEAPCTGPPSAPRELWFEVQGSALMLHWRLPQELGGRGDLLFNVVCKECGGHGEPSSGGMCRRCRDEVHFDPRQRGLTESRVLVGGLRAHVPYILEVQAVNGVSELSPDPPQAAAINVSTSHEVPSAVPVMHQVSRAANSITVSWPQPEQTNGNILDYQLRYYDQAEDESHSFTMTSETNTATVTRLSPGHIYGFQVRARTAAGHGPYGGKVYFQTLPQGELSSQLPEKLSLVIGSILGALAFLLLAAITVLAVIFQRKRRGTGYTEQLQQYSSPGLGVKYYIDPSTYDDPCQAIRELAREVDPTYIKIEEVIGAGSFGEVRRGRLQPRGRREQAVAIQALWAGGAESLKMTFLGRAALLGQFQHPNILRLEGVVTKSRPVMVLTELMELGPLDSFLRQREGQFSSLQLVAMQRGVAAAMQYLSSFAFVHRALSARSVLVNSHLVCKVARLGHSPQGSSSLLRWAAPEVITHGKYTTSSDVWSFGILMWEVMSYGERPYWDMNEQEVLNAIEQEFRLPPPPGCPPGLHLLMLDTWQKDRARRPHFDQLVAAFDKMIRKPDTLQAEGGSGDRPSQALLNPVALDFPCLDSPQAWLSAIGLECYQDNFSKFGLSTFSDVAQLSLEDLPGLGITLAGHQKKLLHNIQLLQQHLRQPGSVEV

HUVEC = test: Cytotoxicity against HUVEC cells after 2 to 16 hrs by LDH assay; assay type: cell-based; details: human, time 2-16 hrs

IC50 (Ephrin type-A receptor 3): 4.5 µM
IC50 (Ephrin type-B receptor 6): > 30 µM
SMILES: CCNC(=O)O[C@@H]1CC[C@@]2(C)[C@H](CC[C@@H]3[C@@H]2CC[C@]2(C)[C@@H]([C@H](C)CCC(=O)N[C@H](CC(=O)O)Cc4c[nH]c5ccccc45)CC[C@@H]32)C1
Activity (HUVEC): Non-Toxic
